ChEMBL document CHEMBL1667778, “Naphthalene/quinoline amides and sulfonylureas as potent and selective antagonists of the EP4 receptor” (Bioorg Med Chem Lett, 2011)

Key:
[1] = Clearance in Sprague-Dawley rat at 5 mg/kg, iv and 20 mg/kg, po; format: ADME, organism-based; conditions: in vivo
[2] = AUC (0 to 24 hrs) in Beagle dog at 4 mg/kg, po; format: ADME, organism-based, Canis lupus familiaris; design: time < 24 hr, dose 4 mg/kg, route oral; conditions: plasma
[3] = Bioavailability in Sprague-Dawley rat at 5 mg/kg, iv and 20 mg/kg, po; format: ADME, organism-based; conditions: in vivo
Liver = test: Drug level in Sprague-Dawley rat liver at 150 uCi/kg, po after 24 hrs; format: ADME, organism-based; conditions: in vivo
[4] = Clearance in Beagle dog at 1 mg/kg, iv and 4 mg/kg, po; format: ADME, organism-based, Canis lupus familiaris; conditions: in vivo
[5] = Bioavailability in Beagle dog at 1 mg/kg, iv and 4 mg/kg, po; format: ADME, organism-based, Canis lupus familiaris; conditions: in vivo
Hepatocyte [6] = test: Metabolic stability in rat hepatocytes; format: ADME, cell-based
[7] = Elimination half life in Sprague-Dawley rat at 5 mg/kg, iv and 20 mg/kg, po; format: ADME, organism-based; conditions: in vivo
Hepatocyte [8] = test: Metabolic stability in human hepatocytes; format: ADME, cell-based
[9] = Elimination half life in Beagle dog at 1 mg/kg, iv and 4 mg/kg, po; format: ADME, organism-based, Canis lupus familiaris; conditions: in vivo
[10] = Metabolic stability in human liver microsome; format: ADME; conditions: microsomes
[11] = Metabolic stability in rat liver microsome; format: ADME; conditions: microsomes
[12] = AUC (0 to 24 hrs) in Sprague-Dawley rat at 20 mg/kg, po; format: ADME, organism-based; design: time < 24 hr, dose 20 mg/kg, route oral; conditions: plasma
Plasma = test: Drug level in Sprague-Dawley rat plasma at 150 uCi/kg, po after 24 hrs; format: ADME, organism-based; conditions: in vivo

CCOc1c2c(c(OCC)c3ccccc13)C(=O)N(c1ccc(CC3(NC(=O)NS(=O)(=O)c4c(Cl)cccc4Cl)CC3)cc1C)C2
clearance [1]: 11 mL/min/kg
AUC(0-t) at 24 h [2]: 101 µM·h
bioavailability [3]: 84%
Drug uptake (Liver): < 10 pmol/mg
clearance [4]: 1.2 mL/min/kg
bioavailability [5]: 100%
Stability (Hepatocyte [6]): 91%
half-life [7]: 6.6 h
Stability (Hepatocyte [8]): 96%
half-life [9]: 4.3 h
Stability [10]: 90%
Stability [11]: 97%
AUC(0-t) at 24 h [12]: 37.4 µM·h
Drug uptake (Plasma): < 10 pmol/mg
